Laboratory results from paper PMC8370248, “Key Metabolic Enzymes Involved in Remdesivir Activation in Human Lung Cells” (Antimicrobial Agents and Chemotherapy, 2021).
Entries after “also recorded” stand apart in the source; their conditions may differ. Structures can show the parent of a compound that is named as a salt.

What was measured:
[1] = Chemical hydrolysis of MetX under acidic conditions mimicking lysosomal lumen; assay type: physicochemical
Protocol: P-N bond cleavage of RDV MetX was evaluated under acidic pH, mimicking intracellular lysosomal conditions.
To test the chemical stability of RDV MetX under acidic conditions (found within the lysosomal lumen) or neutral conditions (e.g., found in the cytosol of cells), 1 μM compound was incubated in a 250-μl reaction mixture consisting of 100 mM sodium acetate (pH 4.5) or 100 mM HEPES (pH 7.5). […] For reactions carried out at pH 4.5, the pH of the reaction aliquots was raised to pH 9 to 10 by addition of 7.5 μl of 0.2 M NaOH prior to addition of the quenching solution. Following protein precipitation and centrifugation, 150 μl of supernatants were dried down and reconstituted with 250 μl water. All samples were analyzed by LC-MS, and PAR values were used for quantification. Disappearance of MetX was monitored over the incubation time period. Three experiments were conducted with two replicates for each experiment, and data are reported as averages from three experiments.

CatA = biological target: T1, CatA (Homo sapiens, UniProt P10619); test: CatA-catalyzed hydrolysis of RDV and control (substrate disappearance, LC-MS)
T1 sequence (P10619 29-326 limits assumed): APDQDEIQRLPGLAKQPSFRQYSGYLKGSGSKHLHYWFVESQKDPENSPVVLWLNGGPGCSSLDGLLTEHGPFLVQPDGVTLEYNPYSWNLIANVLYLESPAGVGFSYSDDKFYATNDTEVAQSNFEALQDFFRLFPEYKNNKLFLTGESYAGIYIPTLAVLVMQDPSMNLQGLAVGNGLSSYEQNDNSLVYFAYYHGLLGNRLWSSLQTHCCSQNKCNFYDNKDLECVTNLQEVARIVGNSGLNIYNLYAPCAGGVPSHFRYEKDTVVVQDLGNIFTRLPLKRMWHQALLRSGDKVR
T1 sequence (P10619 327-480 limits assumed): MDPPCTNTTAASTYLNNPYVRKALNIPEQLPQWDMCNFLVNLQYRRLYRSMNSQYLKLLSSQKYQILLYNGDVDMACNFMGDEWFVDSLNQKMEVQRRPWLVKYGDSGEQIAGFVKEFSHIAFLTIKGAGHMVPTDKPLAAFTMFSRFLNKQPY
Protocol: (§1) The catalytic activity of carboxylesterase 1b (CES1b), carboxylesterase 1c (CES1c), CES2, and CatA toward RDV hydrolysis was measured using protein-enriched subcellular fraction (CES isozymes) or recombinant proteins (CatA). The reaction rates were determined by monitoring the disappearance of RDV using a liquid chromatography-mass spectrometry (LC-MS) method.
Following protein precipitation and centrifugation, 150 μl of supernatant was dried down and reconstituted with 250 μl water. […] Three experiments were conducted with two replicates in each experiment, and data are reported as averages from the three experiments.
(§2) In all studies apart from those with CES1 and CatA with enzyme inhibitors, samples (10-μl aliquots) were injected with a Thermo Scientific autosampler. The LC instrumentation consisted of a Thermo Scientific Dionex UltiMate 3000 RS pump, and the LC column was a Waters Acquity UPLC BEH C18 (1.7 μm particle size, 2.1 by 50 mm). Mobile phases A and B were water 99.9% (vol/vol) containing 0.1% (vol/vol) formic acid, and acetonitrile 99.9% (vol/vol) containing 0.1% (vol/vol) formic acid, respectively, pumped at 0.2 ml/minute. Elution was achieved by a series of linear gradients over 2.33 min followed by reequilibration for 2.57 min. The MS instrument was a Thermo Q Exactive Hybrid Quadrupole-Orbitrap operating in positive or negative ionization mode as appropriate. This was calibrated on a weekly basis, and data were processed with GMSU 8.4.66 software by Gubbs Inc. (Alpharetta, GA). Mass tolerance of 5 ppm was used.

CES1c = biological target: T2, CES1c (Homo sapiens, UniProt P23141); test: CES1c-catalyzed hydrolysis of RDV and control (substrate disappearance, LC-MS); assay type: in vitro ADME; conditions: 1 μM substrate, CES 1.5 mg/ml, pH 7.4, 37°C
T2 construct: purchased Corning Incorporated (Corning, NY); host or cells: baculovirus-infected insect cells (microsomal fraction, Supersomes)
T2 sequence (P23141 18-566 isoform P23141-3 limits assumed): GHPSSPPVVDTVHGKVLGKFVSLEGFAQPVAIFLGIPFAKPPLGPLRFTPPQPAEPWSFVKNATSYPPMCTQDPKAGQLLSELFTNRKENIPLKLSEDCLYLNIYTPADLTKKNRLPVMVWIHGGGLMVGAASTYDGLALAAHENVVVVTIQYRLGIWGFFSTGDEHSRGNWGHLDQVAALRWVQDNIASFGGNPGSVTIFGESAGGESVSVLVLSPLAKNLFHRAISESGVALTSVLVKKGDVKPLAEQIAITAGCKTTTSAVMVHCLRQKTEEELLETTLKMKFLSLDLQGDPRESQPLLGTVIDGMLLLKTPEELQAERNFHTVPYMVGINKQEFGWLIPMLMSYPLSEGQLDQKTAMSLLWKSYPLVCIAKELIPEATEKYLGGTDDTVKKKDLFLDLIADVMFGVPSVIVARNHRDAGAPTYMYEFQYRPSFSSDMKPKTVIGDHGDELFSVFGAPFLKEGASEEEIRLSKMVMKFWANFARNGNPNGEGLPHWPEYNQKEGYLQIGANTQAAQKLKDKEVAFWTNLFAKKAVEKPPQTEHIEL
Protocol: as §1
(§3) RDV or positive-control substrates (oseltamivir for CES1 or procaine for CES2) were incubated with individual Supersome preparations (final CES concentration, 1.5 mg/ml) in 0.1 M potassium phosphate buffer (pH 7.4) at 37°C. Substrates were added to a final concentration of 1 μM to initiate the reaction. The final incubation volume was 250 μl. Aliquots were removed after incubation for 0, 10, 30, 60, and 120 min. The reactions were stopped by the addition of the quench solution containing the LC-MS internal standard (IS) (labetalol). Following protein precipitation and centrifugation, 150 μl of supernatant was dried down and reconstituted with 250 μl water. All samples were analyzed by an LC-MS, and the analyte/internal standard peak area ratio (PAR) values were used for quantification. Disappearance of RDV or positive-control compounds was monitored over the incubation time period. Three experiments were conducted with two replicates in each experiment, and data are reported as averages from the three experiments.
as §2

CES1b = biological target: T3, CES1b (Homo sapiens, UniProt P23141); test: CES1b-catalyzed hydrolysis of RDV and control (substrate disappearance, LC-MS); assay type: in vitro ADME; conditions: 1 μM substrate, CES 1.5 mg/ml, pH 7.4, 37°C
T3 construct: purchased Corning Incorporated (Corning, NY); host or cells: baculovirus-infected insect cells (microsomal fraction, Supersomes)
T3 sequence (P23141 18-567): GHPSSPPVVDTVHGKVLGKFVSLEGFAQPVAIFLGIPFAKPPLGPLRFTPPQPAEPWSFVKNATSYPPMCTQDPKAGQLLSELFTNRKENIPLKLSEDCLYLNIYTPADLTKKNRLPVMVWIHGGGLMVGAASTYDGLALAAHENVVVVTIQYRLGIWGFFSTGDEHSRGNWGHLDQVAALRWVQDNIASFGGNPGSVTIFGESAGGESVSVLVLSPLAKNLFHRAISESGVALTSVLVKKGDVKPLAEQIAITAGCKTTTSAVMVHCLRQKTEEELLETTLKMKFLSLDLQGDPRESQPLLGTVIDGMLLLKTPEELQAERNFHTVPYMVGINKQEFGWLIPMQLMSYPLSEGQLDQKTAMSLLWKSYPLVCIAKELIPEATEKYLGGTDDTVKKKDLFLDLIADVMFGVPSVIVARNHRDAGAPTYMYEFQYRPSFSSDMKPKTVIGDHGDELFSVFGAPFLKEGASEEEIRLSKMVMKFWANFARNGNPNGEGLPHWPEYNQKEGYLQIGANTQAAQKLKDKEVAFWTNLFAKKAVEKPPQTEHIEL
Protocol: as §1, §3, §2

HINT1 = biological target: T4, HINT1 (Homo sapiens, UniProt P49773); test: HINT1-catalyzed hydrolysis of RDV MetX and positive control; assay type: in vitro ADME
T4 construct: purchased Abcam (Cambridge, MA)
T4 sequence (P49773 whole entry): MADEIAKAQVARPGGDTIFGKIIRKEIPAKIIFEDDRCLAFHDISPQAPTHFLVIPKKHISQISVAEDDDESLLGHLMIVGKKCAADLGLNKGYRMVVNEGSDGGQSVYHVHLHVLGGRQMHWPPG

CES2 = biological target: T5, CES2 (Homo sapiens, UniProt O00748); test: CES2-catalyzed hydrolysis of RDV and control (substrate disappearance, LC-MS); assay type: in vitro ADME; conditions: CES 1.5 mg/ml, pH 7.4, 37°C
T5 construct: purchased Corning Incorporated (Corning, NY); host or cells: baculovirus-infected insect cells (microsomal fraction, Supersomes)
T5 sequence (O00748 27-559): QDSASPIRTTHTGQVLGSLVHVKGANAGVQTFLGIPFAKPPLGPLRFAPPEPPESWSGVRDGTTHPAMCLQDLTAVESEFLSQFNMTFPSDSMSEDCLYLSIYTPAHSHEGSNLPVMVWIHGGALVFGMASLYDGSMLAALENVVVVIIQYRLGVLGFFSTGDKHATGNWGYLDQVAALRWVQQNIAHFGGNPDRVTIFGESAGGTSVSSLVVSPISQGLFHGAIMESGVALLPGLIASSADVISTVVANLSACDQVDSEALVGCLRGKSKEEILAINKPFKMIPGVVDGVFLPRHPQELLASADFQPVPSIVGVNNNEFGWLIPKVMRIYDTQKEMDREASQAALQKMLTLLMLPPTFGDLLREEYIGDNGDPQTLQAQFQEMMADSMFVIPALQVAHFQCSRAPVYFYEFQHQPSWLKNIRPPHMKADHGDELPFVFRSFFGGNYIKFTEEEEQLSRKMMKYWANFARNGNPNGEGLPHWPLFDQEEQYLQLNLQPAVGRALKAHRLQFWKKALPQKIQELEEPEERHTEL
Protocol: as §1, §3, §2

[2] = 1 μM compound, 100 mM sodium acetate pH 4.5

CC(Cn1cnc2c(N)ncnc21)OCP(=O)(O)NC(C)C(=O)O (stereo not shown) [TAF MetX]
Lysosomal hydrolysis at pH 4.5 [1, 2]: 1.2 ± 0.6 × 10^−3 nmol/min | t1/2, lysosomal hydrolysis at pH 4.5 [1, 2]: 16 ± 7 min

CC(C)OC(=O)[C@H](C)N[P@](=O)(CO[C@H](C)Cn1cnc2c(N)ncnc21)Oc1ccccc1 [TAF (GS-7340), tenofovir alafenamide fumarate]
Activity for amidate ester cleavage, CatA (CatA; 1 μM substrate, 5 nM CatA, pH 6.5, 37°C): 254 ± 154 nmol/min/mg | half-life at 1 μM (CatA; human, pH 6.5): 13 min

CCOC(=O)C1=C[C@@H](OC(CC)CC)[C@H](NC(C)=O)[C@@H](N)C1 [Oseltamivir]
Activity for amidate ester cleavage, CES1c (CES1c): 1.5 ± 0.2 × 10^−2 nmol/min/mg | half-life at 1 μM (CES1c; human, CES1c Supersomes (protein-enriched subcellular fraction), read-out: t1/2, CES1c (converted)): 31 min | Activity for amidate ester cleavage, CES1b (CES1b): 2.3 ± 0.1 × 10^−2 nmol/min/mg | half-life at 1 μM (CES1b; human, CES1b Supersomes (protein-enriched subcellular fraction), read-out: t1/2, CES1b (converted)): 20 min

C[C@H](N[P@@](=O)(O)OC[C@H]1O[C@@](C#N)(c2ccc3c(N)ncnn23)[C@H](O)[C@@H]1O)C(=O)O [RDV MetX]
HINT1 hydrolysis (HINT1; 1 μM substrate, 250 nM HINT1, pH 7.2, 37°C): 32 ± 12 nmol/min/mg | half-life at 1 μM (HINT1; human, recombinant HINT1, 1 μM substrate, 250 nM HINT1, pH 7.2, 37°C, read-out: t1/2, HINT1 hydrolysis (converted)): 5.5 min | HINT1 metabolism rate relative to GS-6620 MetX (HINT1; times faster than known substrate GS-6620 MetX): 6 times | Lysosomal hydrolysis at pH 4.5 [1, 2]: 0 ± 0 nmol/min | P-N bond cleavage under acidic pH ([1]; acidic pH mimicking intracellular lysosomal conditions): no RDV MetX hydrolysis product was detectable; also recorded: completely resistant to acid hydrolysis | half-life at 1 μM ([1]; buffer, pH 4.5): > 167 h

CCN(CC)CCOC(=O)c1ccc(N)cc1 [Procaine]
Activity for amidate ester cleavage, CES2 (CES2; 1 μM substrate): 4.4 ± 0.8 × 10^−3 nmol/min/mg | half-life at 1 μM (CES2; human, CES2 Supersomes (protein-enriched subcellular fraction), pH 7.4, 1 μM substrate, read-out: t1/2, CES2 (converted)): 110 min
